Among the data in ChEMBL document CHEMBL3044885, “Synthesis and fungicidal activity against Rhizoctonia solani of 2-alkyl (Alkylthio)-5-pyrazolyl-1,3,4-oxadiazoles (Thiadiazoles)” (2000) are inhibition values, retold here.

Experiment [1] concerns Rhizoctonia solani. Nature of the experiment: Fungicidal activity against Rhizoctonia solani inoculated on compound pre-treated fifth-leaf stage rice seedlings through foliar spraying assessed as inhibition of rice sheath blight disease at 100 ppm measured 4 days post fungal inoculation.
The subject of experiment [2] is Rhizoctonia solani. Description: Fungicidal activity against Rhizoctonia solani inoculated on compound pre-treated fifth-leaf stage rice seedlings through foliar spraying assessed as inhibition of rice sheath blight disease at 500 ppm measured 4 days post fungal inoculation.

Molecules are shown by their SMILES.

The inhibition is the relative decrease from the control value, in per cent. As for `CCc1nnc(-c2c(Cl)c(CC)nn2C)o1`, the inhibition at 100 ppm in experiment [1] was 25%. The inhibition at 500 ppm in experiment [2] was 70%.
For `CCCCc1nnc(-c2c(Cl)c(CC)nn2C)o1`, in that order: 25% and 70%.
As to `COC(=O)Nc1nc2ccccc2[nH]1` [CARBENDAZIM], in experiment [1], the inhibition at 100 ppm worked out at 100%. Moreover, in experiment [2], the inhibition at 500 ppm is 100%.
For the compound `CCc1cc(-c2nnc(S)o2)n(C)n1`, the inhibition at 100 ppm in experiment [1] was determined as 25%. Moreover, in experiment [2], the inhibition at 500 ppm was 50%.
With `CCc1cc(-c2nnc(SC)o2)n(C)n1`, in experiment [1], the inhibition at 100 ppm was determined as 50%. Further, the inhibition at 500 ppm in experiment [2] amounted to 90%.
The like results for `CCCCCCCSc1nnc(-c2c(Cl)c(CC)nn2C)o1` were, in that order, 50% and 50%.
For `CCCCCSc1nnc(-c2c(Cl)c(CC)nn2C)o1`, in that order: 25% and 70%.
With `CCc1nn(C)c(-c2nnc(SC)s2)c1Cl`, in experiment [1], the inhibition at 100 ppm was found to be 90%. In experiment [2], the inhibition at 500 ppm amounted to 90%.
As to `CCSc1nnc(-c2cc(CC)nn2C)o1`, the inhibition at 100 ppm in experiment [1] worked out at 50%. Also, the inhibition at 500 ppm in experiment [2] came to 90%.
For the compound `CCc1nn(C)c(-c2n[nH]c(=O)o2)c1Cl`, the inhibition at 100 ppm in experiment [1] is 0%. The inhibition at 500 ppm in experiment [2] was determined as 0%.
For `CCOC(=O)C(C)Sc1nnc(-c2cc(CC)nn2C)o1` (configuration not stated), in experiment [1], the inhibition at 100 ppm was found to be 0%. Besides, the inhibition at 500 ppm in experiment [2] was found to be 25%.
In the case of `CCc1nn(C)c(-c2nnc(CCl)o2)c1Cl`, in experiment [1], the inhibition at 100 ppm came to 50%. Also, the inhibition at 500 ppm in experiment [2] amounted to 90%.
Consider `CCc1nn(C)c(-c2nn(C)c(=O)o2)c1Cl`, for which, in experiment [1], the inhibition at 100 ppm came out at 0%. The inhibition at 500 ppm in experiment [2] stood at 25%.
For the compound `CCc1nn(C)c(-c2nnc(C(F)(F)F)o2)c1Cl`, the inhibition at 100 ppm in experiment [1] was 25%. The inhibition at 500 ppm in experiment [2] was determined as 70%.
As to `CCCSc1nnc(-c2c(Cl)c(CC)nn2C)s1`, in experiment [1], the inhibition at 100 ppm came to 70%. Moreover, the inhibition at 500 ppm in experiment [2] is 70%.
As for `CCc1nn(C)c(-c2nnc(S)o2)c1Cl`, the inhibition at 100 ppm in experiment [1] is 0%. For the same compound, in experiment [2], the inhibition at 500 ppm is 25%.
For `CCSc1nnc(-c2c(Cl)c(CC)nn2C)s1`, in that order: 90% and 90%.
In the case of `CCCCCSc1nnc(-c2c(Cl)c(CC)nn2C)s1`, the inhibition at 100 ppm in experiment [1] was 25%. The inhibition at 500 ppm in experiment [2] was found to be 70%.
Take `CCc1nn(C)c(-c2nnc(S)s2)c1Cl`: the inhibition at 100 ppm in experiment [1] stood at 90%. The inhibition at 500 ppm in experiment [2] turned out to be 100%.
Regarding `CCCSc1nnc(-c2cc(CC)nn2C)o1`, the inhibition at 100 ppm in experiment [1] was determined as 25%. In experiment [2], the inhibition at 500 ppm was 70%.
In the case of `CCc1nn(C)c(-c2nnc(SC)o2)c1Cl`, in experiment [1], the inhibition at 100 ppm turned out to be 70%. For the same compound, in experiment [2], the inhibition at 500 ppm came out at 90%.
For `C=CCSc1nnc(-c2c(Cl)c(CC)nn2C)s1`, in that order: 25% and 50%.
With `CCCCCSc1nnc(-c2cc(CC)nn2C)o1`, the inhibition at 100 ppm in experiment [1] came to 0%. Also, in experiment [2], the inhibition at 500 ppm is 50%.
In the case of `CCOC(=O)C(C)Sc1nnc(-c2c(Cl)c(CC)nn2C)o1` (configuration not stated), in experiment [1], the inhibition at 100 ppm was 0%. Also, in experiment [2], the inhibition at 500 ppm was 0%.
For the compound `CCCSc1nnc(-c2c(Cl)c(CC)nn2C)o1`, the inhibition at 100 ppm in experiment [1] came to 50%. Besides, the inhibition at 500 ppm in experiment [2] is 90%.
Turning to `CCCCCCCCSc1nnc(-c2c(Cl)c(CC)nn2C)o1`, the inhibition at 100 ppm in experiment [1] amounted to 50%. For the same compound, the inhibition at 500 ppm in experiment [2] was found to be 50%.
